Measurements taken from article PMC3697084 (Methods in enzymology, 2010).

Molecular target: T1, human red cone opsin (Homo sapiens, UniProt P04000)
T1 sequence (P04000 1-364): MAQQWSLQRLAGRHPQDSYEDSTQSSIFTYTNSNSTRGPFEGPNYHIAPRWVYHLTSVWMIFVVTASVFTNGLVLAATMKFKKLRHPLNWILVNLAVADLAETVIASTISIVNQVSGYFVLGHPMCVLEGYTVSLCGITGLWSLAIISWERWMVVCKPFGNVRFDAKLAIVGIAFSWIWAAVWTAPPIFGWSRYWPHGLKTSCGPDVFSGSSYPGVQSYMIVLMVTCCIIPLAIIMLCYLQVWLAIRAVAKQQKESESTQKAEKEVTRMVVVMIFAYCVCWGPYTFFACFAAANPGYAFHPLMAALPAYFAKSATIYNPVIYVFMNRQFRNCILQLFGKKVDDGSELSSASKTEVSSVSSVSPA
Assay: radioactive GTPγS filter binding, transducin activation
Type: biochemical
Details: COS-1 membranes, bovine rod transducin, pH 6.4

## CC(=O)/C=C/C1=C(C)CCCC1(C)C [β-ionone]
  inverse agonist: these compounds were found to be inverse agonists to the red cone opsin
